# Source: patent US9636427B2, “Process for preparing a pharmaceutical formulation of contrast agents” (GUERBET, priority 2008, dated 2017)
# Assay: not given
# Details: values from table 1 of U.S. Pat. No. 7,385,041; cited from earlier work
row,SMILES,Letal dose (LD 50)
1,O=C([O-])CN1CCNCCN(CC(=O)[O-])CCN(CC(=O)[O-])CC1.O=C([O-])CN1CCNCCN(CC(=O)[O-])CCN(CC(=O)[O-])CC1.[Ca+2].[Ca+2].[Ca+2] [Ca[Ca-DO3A]2.],1.6 mmol/kg
2,CC(O)CN1CCN(CC(=O)[O-])CCN(CC(=O)[O-])CCN(CC(=O)[O-])CC1.CC(O)CN1CCN(CC(=O)[O-])CCN(CC(=O)[O-])CCN(CC(=O)[O-])CC1.[Ca+2].[Ca+2].[Ca+2] (stereo not drawn) [Ca[Ca-HPDO3A]2],1.3 mmol/kg
3,O=C(O)CN1CCNCCN(CC(=O)O)CCN(CC(=O)O)CC1 [DO3A],0.12 mmol/kg
4,"O=C(O)CN1CCN(CC(=O)O)CCN(CC(=O)O)CCN(CC(=O)O)CC1 [DOTA, 1,4,7,10-Tetraazacyclododecane-N,N′,N″,N″′-tetraacetic acid]",0.18 mmol/kg
5,O=C([O-])CN1CCN(CC(=O)[O-])CCN(CC(=O)O)CCN(CC(=O)[O-])CC1.[Gd+3] [DOTA-Gd],14 mmol/kg
6,CC(O)CN1CCN(CC(=O)[O-])CCN(CC(=O)[O-])CCN(CC(=O)[O-])CC1.[Gd+3] (stereo not drawn) [HP-DO3A-Gd],12 mmol/kg
7,CC(O)CN1CCN(CC(=O)O)CCN(CC(=O)O)CCN(CC(=O)O)CC1 (stereo not drawn) [HP-DO3A],0.11 mmol/kg
8,O=C([O-])CN1CCN(CC(=O)[O-])CCN(CC(=O)[O-])CCN(CC(=O)[O-])CC1.[Ca+2].[Na+].[Na+] [Na2 [Ca-DOTA]],>7 mmol/kg

# Assay: Lethal dose (LD50) of free macrocyclic chelates, excipients X[X',L] and Gd chelates, table 1 of U.S. Pat. No. 7,385,041
# Details: times better LD50 than free DOTA
row,SMILES,LD50 of Na2[Ca-DOTA] relative to free DOTA
1,O=C([O-])CN1CCN(CC(=O)[O-])CCN(CC(=O)[O-])CCN(CC(=O)[O-])CC1.[Ca+2].[Na+].[Na+] [Na2 [Ca-DOTA]],at least 40 times
